# Entries after “also recorded” stand apart in the source; their conditions may differ.
# How the values were obtained:
# [1] = system: IFN response in 5TGM1 cells; experiment: Type-I IFN response in MM cells (qRT-PCR); format: cell-based, murine; settings: 5TGM1 Sting^KO; BTZ 7.5 nM
# Description: Total RNA from multiple myeloma cells was prepared with TRIzol™ (ThermoFisher Scientific) and RNA Clean and Concentrator™-5 kit (Zymo Research) following the product instructions. RNA integrity and quantity was assessed by NanoDrop Spectrophotometer (ThermoFisher Scientific). For analysis of mRNA expression, oligo-dT-primed cDNA was obtained using the High Capacity cDNA Reverse Transcription Kit (ThermoFisher Scientific), and used as template to quantify: human and murine IFNA1 (Hs03044218_g1, Mm03030145_gH), human and murine IFNB1 (Hs01077958_s1, Mm00439552_s1), human and murine CXCL9 (Hs00171065_ml, Mm00434946_ml), and human and murine GAPDH (Hs02786624_g1, Mm99999915_g1). Analysis was determined by RT-PCR using TaqMan®Fast Universal PCR Master Mix on a 7500 Fast Real-Time PCR System (ThermoFisher Scientific). Comparative RT-PCR was performed in triplicate. Relative expression was calculated using the comparative […] (Ct) method.
# [2] = system: patient-derived MM cells (pdMM); experiment: Phagocytosis assay of patient-derived MM cells by DCs; format: cell-based, human; settings: BTZ 5 and 10 nM; 4 h co-culture
# Source text: Multiple myeloma patients BM aspirates and normal donor peripheral blood mononuclear cells (PBMCs) were obtained after written informed consent, in accordance with the declaration of Helsinki and under the approval by the Institutional Review Board of the Dana-Farber Cancer Institute. BMMCs and PBMCs were separated by Ficoll-Paque PLUS (GE Healthcare). Multiple myeloma cells from BMMCs were enriched by CD138-positive selection using magnetic microbeads (Miltenyi Biotec).
# Mo-DCs were generated from CD14+ peripheral blood monocytes from healthy donors, positively selected using magnetic beads (Miltenyi Biotec), cultured for 6 days in mo-DC differentiation medium containing GM-CSF and IL-4 (130-094-812; Miltenyi Biotec). AMO1 and NCI-H929 cells lines, as well as patient MM cells, were stained with CellTrace™ Far Red (ThermoFisher Scientific), cultured with or without BTZ for 16 h, and then incubated in 48-well plates for 4 h at 1:1 ratio with CellTrace™ CFSE stained Mo-DCs. Cells were then collected, and phagocytosis analysis was performed by flow cytometry and confocal microscopy. Analagous phagocytosis experiments were performed using 5TGM1 murine multiple myeloma and JAWSII cell line that was used as source of immature murine DCs.
# (§1) Flow cytometry-based assay: Collected cells were analyzed using the BD LRSFortessa X-20 flow cytometer. […]
# 5TGM1 MM cells = experiment: Phagocytosis assay of MM cells by JAWSII DCs; format: cell-based, murine
# Description: Mo-DCs were generated from CD14+ peripheral blood monocytes were positively selected using magnetic beads (Miltenyi Biotec) and cultured for 6 days in mo-DC differentiation medium containing GM-CSF and IL-4 (130-094-812; Miltenyi Biotec) to generate Mo-DCs. AMO1, KMS11 and H929 cells lines, as well as patient MM cells, were stained with CellTrace™ Far Red (ThermoFisher Scientific), cultured with or without BTZ (for 16 h), and then incubated in 48-well plates for 4 h at 1:1 ratio with CellTrace™ CFSE stained Mo-DCs. Cells were then collected, and phagocytosis analysis was performed by flow cytometry and confocal microscopy. Analagous phagocytosis experiments was performed using 5TGM1 murine MM and immature murine DC line JAWSII.
# Collected cells were analyzed using the BD LRSFortessa™ X-20 flow cytometer. Mo-DCs that engulfed MM cells were CFSE and FAR-RED double positive. Fold increase in percentage of double positive DCs after co-culture with BTZ treated vs untreated MM cells was compared. […]
# as §1
# Confocal microscopy-based assay: 5TGM1 cells (15000) were cytospun for 7 min at 300 rpm, fixed in 4% paraformaldehyde for 20 min at RT, and washed three times with 1% FBS in PBS. […] Slides were examined using Yokogawa Spinning Disk Confocal/TIRF System, and analyzed with ImageJ software.
# STC1 = experiment: Western blot of STC1; format: cell-based
# 5TGM1 tumors = experiment: IHC CD3 staining of tumors; format: in vivo, mouse; settings: tumors retrieved after one administration of the drugs
# Description: NOD/SCID and C57BL/KaLwRijHsd mice were subcutaneously (sc) injected with 1×10^6 5TGM1 either WT or Calr^KO cells in PBS. When tumor became measurable, mice were randomized to receive either PBS or BTZ administered intra peritoneally (i.p.) 0.5 mg/kg twice/week for 2 weeks. Tumor sizes were measured as previously described (46), and mice were sacrificed when tumors reached 2 cm in diameter or ulceration or major compromise in quality of life. A parallel experiment was performed to allow for tumor harvesting after two injections ip of BTZ for RNA-seq analysis, as detailed below. For BTZ and STING agonist combination studies, C57BL/KaLwRijHsd (n=5/group) and SCID/NOD (n=6/group) mice bearing 5TGM1 WT and C57BL/KaLwRijHsd mice (n=5/group) bearing 5TGM1 Sting^KO tumors were randomized to receive: PBS, BTZ (0.375 mg/kg twice a week for 2 weeks, i.p.), ADU-S100 (100 μg) administered in the peritumoral area (day 1 and 2), or a combination. Tumor sizes were measured as described above. A parallel experiment in C57BL/KaLwRijHsd mice was performed to allow for tumor harvesting after one administration of either BTZ or ADU-S100. Tumors were fixed in 10% formalin for 24 h, and then maintained in 70% ethanol prior to paraffin embedding and processing for IHC to detect CD3 (#nb600 Ab, Novus Bio).
# [3] = system: 5TGM1 multiple myeloma cell line; experiment: Apoptosis assay (Annexin-V/7-AAD flow cytometry); format: cell-based, murine
# Description: Apoptosis was evaluated by Annexin-V/7-Aminoactinomycin D (7-AAD) staining and flow cytometric analysis using the PE Annexin V Apoptosis Detection Kit I (BD Biosciences), following the manufacturer's instructions.
# Apoptosis was evaluated by Annexin-V/7-Aminoactinomycin D (7-AAD) staining and flow cytometric analysis using the PE Annexin V Apoptosis Detection Kit I (BD Biosciences).
smiles,measurement,setting,value
"CC(C)C[C@H](NC(=O)[C@H](Cc1ccccc1)NC(=O)c1cnccn1)B(O)O [BTZ, bortezomib]","IFN response (Ifna1, Ifnb1 qRT-PCR)",[1],abrogation of IFN response after BTZ treatment
same,phagocytosis of BTZ-treated pdMM cells by DCs,[2],dose-dependent increase in phagocytosis of BTZ-treated pdMM cells by DCs
same,phagocytosis of BTZ-treated MM cells by DCs,5TGM1 MM cells; 5TGM1 Calr^KO cells,calreticulin is necessary for induction of ICD by BTZ; also recorded: abrogated in vitro when DCs were co-cultured with CRT^KOMM cells; also recorded: inhibited
same,phagocytosis of BTZ-treated MM cells by DCs,"5TGM1 MM cells; 5TGM1 WT, BTZ 16 h, then 4 h co-culture with mDCs",engulfed by monocyte-derived DCs after 4 h of co-culture
same,STC1 protein levels,STC1; GABARAP^KO cells after BTZ,intracellular levels of STC1 are even higher after BTZ treatment
same,STC1 protein levels,"STC1; WT cells (5TGM1, AMO1) after BTZ",STC1 protein levels decrease in WT cells after BTZ treatment
same,CD3+ T cell infiltration within tumors (IHC),5TGM1 tumors,increased CD3+ T cell infiltration within tumors
same,"multiple myeloma cell death, as measured by phosphatidylserine exposure","[3]; 5TGM1, BTZ 1-10 nM, 16 h",induced multiple myeloma cell death in a dose-dependent manner
same,apoptosis (annexin-V-positive cells),"[3]; 5TGM1 WT vs Calr^KO clones, BTZ 7.5 nM",triggered apoptosis in both 5TGM1 WT cells and the Calr^KO clones at the same extent
